Laboratory results: article PMC8752738, “A propolis-derived small molecule ameliorates metabolic syndrome in obese mice by targeting the CREB/CRTC2 transcriptional complex” (Nature Communications, 2022)
“And” between values parts separate entries of the source, which are not always exact repeats. Equal values may be shown once.

Tests used:
[1] = Cholesterol, TG, NEFA and glycerol in serum and liver; assay type: in vivo, mouse; parameters: liver NEFA, Mean 2 (group mean) / Plasma VLDL cholesterol in db/db mice (VLDL-C) / Plasma VLDL cholesterol in db/db mice, group mean / TC in liver_CT2KO (total cholesterol in the liver of CRTC2-KO) / TC in liver_WT (total cholesterol in the liver) / TC in liver_WT, mean / TC in liver_WT, Mean Diff. VEH vs. drug / TC in liver_CRTC2KO, mean / TC in liver_CRTC2KO, Mean Diff. VEH vs. drug: unit not given here
Protocol: Serum total cholesterol (TC), LDL cholesterol (LDL-C), and HDL cholesterol (HDL-C) levels were detected using commercial kits (Beihua, China), and serum VLDL protein was determined by ELISA (Jiancheng, China).
The plasma TG and NEFA levels were determined using corresponding kits from Beihua (China) and WAKO (Japan), respectively. The TG levels of liver and WAT were tested by TG kit (Applygene, China). The NEFA in the liver and WAT were extracted by chloroform–methanol and then subjected to NEFA assay (WAKO).

[2] = system: tissue protein levels; experiment: Immunoblotting of tissue proteins in treated mice; assay type: in vivo, mouse; conditions: for Relative LXRa/ACTIN, Mean Diff. (VEH vs. treated) / Relative LXRa/ACTIN, Mean 2 (group mean) / Relative LXRa/ACTIN: Figure 7h; for Relative LXRa/ACTIN, Mean 2 (group mean): N2 = 4; for Relative LXRa/ACTIN: single replicates
Protocol: Immunoblotting and immunoprecipitation assays were performed as previously described, with antibodies recognizing CREB, Ser133-P-CREB, AMPK, P-AMPK, AKT, P-AKT (Cell Signaling), PGC-1α (Merck), CRTC2 (Calbiochem), PCK1 (Santa Cruz), SREBP1 (Santa Cruz), SREBP2 (BD), HA (Convance), LXRα (Santa Cruz), FLAG (Sigma), GST (Covance), HIS (Abmart), GAPDH (AOGMA), α-TUBULIN (Abmart), β-ACTIN (Abmart), and other antibodies (Supplementary Table 3). For immunostaining assays, primary cultured hepatocytes seeded on coverslips were fixed with 4% paraformaldehyde for 20 min, permeabilized with 0.3% Triton X-100 in PBS, and then blocked by 5% normal goat serum and 0.3% Triton X-100 in PBS, followed by incubation with anti-CREB (1:1000), anti-P-CREB (1:1000), or anti-HA (1:3000) antibodies for 1 h at 4 °C. Slides were then washed, and after washing, slides were incubated with fluorochrome-conjugated secondary antibodies (Invitrogen). Slides were then washed and mounted with Vectashield mounting media containing 4, 6-diamidino-2-phenylindole (DAPI).

[3] = Figure 6b right, N=4, VEH mean 1
[4] = Figure 6b right, individual animals, relative to VEH
[5] = Figure 8c, relative protein in DIO liver, individual samples
[6] = db/db mice, liver, group mean, N=3, VEH mean 1
[7] = db/db mice, liver, individual mouse
[8] = liver of DIO mice, individual samples, n=3
[9] = liver, CRTC2KO mice, drug minus VEH
[10] = liver, WT mice, group mean, N=4

## CC(C)=CCc1cc(C=CC(=O)O)cc(CC=C(C)C)c1O [APC, 3,5-diprenyl-4-hydroxycinnamic acid]
[1]; liver, CRTC2-KO mice, group mean (Mean 2), N=6
  TC in liver_CRTC2KO, mean: 47.01
[1]; liver, CRTC2-KO mice, group mean, N=6
  TG in liver_CT2KO, mean: 16.67 mg/g protein
[1]; liver, CRTC2-KO mice, individual animals, Supp.fig.5c
  TG in liver_CT2KO: 24.3792 mg/g protein and 12.893 mg/g protein and 18.4652 mg/g protein and 10.1068 mg/g protein and 21.2872 mg/g protein and 12.8898 mg/g protein
[1]; liver, CRTC2-KO mice, individual animals, Supp.fig.5d
  TC in liver_CT2KO (total cholesterol in the liver of CRTC2-KO): 58.4768 and 29.5309 and 45.7311 and 42.1461 and 61.1694 and 45.0332
[1]; liver, WT mice, VEH minus drug
  TC in liver_WT, Mean Diff. VEH vs. drug: 14.77
[1]; liver, WT mice, drug minus VEH
  TG in liver_WT, Mean Diff. vs. VEH: -10.82 mg/g protein
[1]; liver, WT mice, group mean (Mean 2), N=6
  TC in liver_WT, mean: 45.59
[1]; liver, WT mice, group mean, N=6
  TG in liver_WT, mean: 9.137 mg/g protein
[1]; liver, WT mice, individual animals, Supp.fig.5c
  TG in liver_WT: 10.5445 mg/g protein and 8.1654 mg/g protein and 11.0077 mg/g protein and 10.5773 mg/g protein and 6.8582 mg/g protein and 7.67 mg/g protein
[1]; liver, WT mice, individual animals, Supp.fig.5d
  TC in liver_WT (total cholesterol in the liver): 40.0962 and 49.3508 and 44.4273 and 45.043 and 48.2093 and 46.4302
[1]; oral 20 mg/kg, 3 weeks
  plasma and liver cholesterol, liver TG in Crtc2-KO mice: little effect
[2]; DIO and db/db mice
  hepatic protein levels of PCK1 and PGC-1α: decreased
[2]; DIO mice
  accumulation of mature SREBP proteins in the liver: reducing
  protein levels of LXRα and SREBP1 in the liver: decreased
[2]; [3]
  SREBP1/GAPDH, Predicted (LS) mean: 0.3097
  SREBP2/GAPDH, Predicted (LS) mean: 0.1841
[2]; [4]
  Relative SREBP1/2 protein levels: SREBP1/GAPDH: 0.2289 and 0.468 and 0.339 and 0.2027
  Relative SREBP1/2 protein levels: SREBP2/GAPDH: 0.3721 and 0.1919 and 0.1184 and 0.05422
[2]; Figure 8c, DIO liver, group mean, N=3, Ctrl mean 1
  PGC1a/GAPDH density, mean: 0.5994
[2]; Figure 8c, DIO liver, group mean, N=3, Ctrl mean 1.007
  PCK1/GAPDH density, mean: 0.6998
[2]; [5]
  Relative PGC1a/GAPDH density: 0.6916 and 0.563 and 0.5437
  relative PCK1/GAPDH density: 0.6644 and 0.7152 and 0.7198
[2]; CRTC2KO
  Relative LXRa/ACTIN, Mean Diff. (VEH vs. treated): 0.1178
  Relative LXRa/ACTIN, Mean 2 (group mean): 0.6864
[2]; CT2KO
  Relative LXRa/ACTIN: 0.6612 and 0.7951 and 0.6751 and 0.6141
[2]; WT
  Relative LXRa/ACTIN, Mean Diff. (VEH vs. treated): 0.3705
  Relative LXRa/ACTIN, Mean 2 (group mean): 0.525
  Relative LXRa/ACTIN: 0.572 and 0.5732 and 0.4815 and 0.4734
[2]; [6]
  Relative PCK1/TUBLIN in db/db liver, mean: 0.4585 folds
  Relative PGC1a/TUBLIN in db/db liver, mean: 0.2953 folds
[2]; [7]
  Relative proteins in the liver of db/db mice, PCK1/TUBLIN: 0.5197 folds and 0.4980 folds and 0.3577 folds
  Relative proteins in the liver of db/db mice, PGC1a/TUBLIN: 0.2725 folds and 0.3156 folds and 0.2979 folds
[2]; [8]
  relative protein levels in liver of DIO: LXRa/GAPDH: 0.741 and 0.777 and 0.8147
  relative protein levels in liver of DIO: PPARa/GAPDH: 0.924 and 0.9 and 0.98
  relative protein levels in liver of DIO: SREBP1/GAPDH: 0.391 and 0.515 and 0.283
[2]; liver of DIO mice, mean of N=3
  relative protein levels in liver of DIO: LXRa, group mean (Mean 1): 0.7776
  relative protein levels in liver of DIO: PPARa, group mean (Mean 1): 0.9347
  relative protein levels in liver of DIO: SREBP1, group mean (Mean 1): 0.3963
[2]; [9]
  SREBP1/ACT IN CT2KO, Mean Diff. vs. VEH: -0.1371
  SREBP2/ACT IN CT2KO, Mean Diff. vs. VEH: -0.0958
[2]; liver, CRTC2KO mice, group mean, N=4
  SREBP1/ACT IN CT2KO, mean: 0.5503
[2]; liver, CRTC2KO mice, individual replicates, Supp.fig.5a left
  SREBP1/ACT IN CT2KO (related SREBP1 protein levels in CRTC2KO liver): 0.5592 and 0.5689 and 0.5793 and 0.4937
[2]; liver, CRTC2KO mice, individual replicates, Supp.fig.5a right
  SREBP2/ACT IN CT2KO (related SREBP2 protein levels in CRTC2KO liver): 0.6411 and 0.5673 and 0.6822 and 0.6938
[2]; liver, WT mice, drug minus VEH
  SREBP1/ACT IN WT, Mean Diff. vs. VEH: -0.2945
  SREBP2/ACT IN WT, Mean Diff. vs. VEH: -0.4593
[2]; [10]
  SREBP1/ACT IN WT, mean: 0.6687
  SREBP2/ACT IN WT, mean: 0.5653
[2]; liver, WT mice, individual replicates, Supp.fig.5a left
  SREBP1/ACT IN WT (related SREBP1 protein levels in liver): 0.6865 and 0.5728 and 0.728 and 0.6877
[2]; liver, WT mice, individual replicates, Supp.fig.5a right
  SREBP2/ACT IN WT (related SREBP2 protein levels in liver): 0.6071 and 0.5991 and 0.5115 and 0.5437
[2]; treated obese mice
  phosphorylated AKT in liver, muscle, brown and white adipose tissues: enhanced
